Laboratory results as given in ChEMBL document CHEMBL1154034, “Piperazinyl-glutamate-pyridines as potent orally bioavailable P2Y12 antagonists for inhibition of platelet aggregation” (Bioorg Med Chem Lett, 2009).

What follows are compounds tested against P2Y purinoceptor 12 (Homo sapiens, UniProt Q9H244) (assay: Binding affinity to human recombinant P2Y12 receptor expressed in CHO cells).
Type: cell-based

P2Y purinoceptor 12, sequence (Q9H244 whole entry): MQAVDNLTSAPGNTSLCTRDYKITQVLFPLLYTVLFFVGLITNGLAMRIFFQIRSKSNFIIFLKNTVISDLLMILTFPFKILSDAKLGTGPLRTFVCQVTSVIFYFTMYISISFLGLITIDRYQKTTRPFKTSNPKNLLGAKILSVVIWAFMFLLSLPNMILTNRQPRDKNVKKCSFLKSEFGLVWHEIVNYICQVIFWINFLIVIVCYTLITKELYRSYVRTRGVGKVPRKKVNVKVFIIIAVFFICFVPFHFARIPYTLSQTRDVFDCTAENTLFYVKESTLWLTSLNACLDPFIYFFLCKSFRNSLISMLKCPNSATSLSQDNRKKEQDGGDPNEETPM

Compound	Ki
CCCOC(=O)N1CCN(C(=O)[C@H](CCC(=O)O)NC(=O)c2cccc(-c3ccccc3)n2)CC1	27 nM
CCCCOc1cc(C(=O)N[C@@H](CCC(=O)O)C(=O)N2CCN(C(=O)OCC)CC2)nc(-c2ccccc2)c1	39 nM
CCOC(=O)N1CCN(C(=O)[C@H](CCC(=O)O)NC(=O)c2ccccn2)CC1	> 5400 nM
CN(CCS(C)(=O)=O)c1cc(C(=O)N[C@@H](CCC(=O)O)C(=O)N2CCN(C(=O)OCCC3CCCC3)CC2)nc(-c2ccccc2)c1	80 nM
CCOC(=O)N1CCN(C(=O)[C@H](CCC(=O)O)NC(=O)c2cc(N3CCC(N4CCCC4)CC3)cc(-c3ccccc3)n2)CC1	34 nM
COC(=O)N1CCN(C(=O)[C@H](CCC(=O)O)NC(=O)c2cccc(-c3ccccc3)n2)CC1	2440 nM
CC(C)OC(=O)N1CCN(C(=O)[C@H](CCC(=O)O)NC(=O)c2cc(OC3CCNCC3)cc(-c3ccccc3)n2)CC1	157 nM
CCCCOc1cc(C(=O)N[C@@H](CCC(=O)O)C(=O)N2CCN(C(=O)OC(C)C)CC2)nc(-c2ccccc2)c1	146 nM
CCOC(=O)N1CCN(C(=O)[C@H](CCC(=O)O)NC(=O)c2cc(N3CCC(N)CC3)cc(-c3ccccc3)n2)CC1	27 nM
CCCCCCCCOC(=O)N1CCN(C(=O)[C@H](CCC(=O)O)NC(=O)c2cccc(-c3ccccc3)n2)CC1	14 nM
CCOC(=O)N1CCN(C(=O)[C@H](CCC(=O)O)NC(=O)c2cc(OCCOC)cc(-c3ccccc3)n2)CC1	92 nM
CCCNc1cc(C(=O)N[C@@H](CCC(=O)O)C(=O)N2CCN(C(=O)OCC)CC2)nc(-c2ccccc2)c1	64 nM
CCOC(=O)N1CCN(C(=O)[C@H](CCC(=O)O)NC(=O)c2cc(NCC3CCNCC3)cc(-c3ccccc3)n2)CC1	190 nM
CCCCCOC(=O)N1CCN(C(=O)[C@H](CCC(=O)O)NC(=O)c2cc(OCCOC)cc(-c3ccccc3)n2)CC1	10 nM
CCOC(=O)N1CCN(C(=O)[C@H](CCC(=O)O)NC(=O)c2cc(OCCCN)cc(-c3ccccc3)n2)CC1	214 nM
C=CCOC(=O)N1CCN(C(=O)[C@H](CCC(=O)O)NC(=O)c2cc(OCCOC)cc(-c3ccccc3)n2)CC1	95 nM
CCCCOC(=O)N1CCN(C(=O)[C@H](CCC(=O)O)NC(=O)c2cc(OCCO)cc(-c3ccccc3)n2)CC1	21 nM
CCCCCCOC(=O)N1CCN(C(=O)[C@H](CCC(=O)O)NC(=O)c2cc(N3CCC(COC)CC3)cc(-c3ccccc3)n2)CC1	33 nM
CCOC(=O)N1CCN(C(=O)[C@H](CCC(=O)O)NC(=O)c2cc(N3CCC(O)CC3)cc(-c3ccccc3)n2)CC1	42 nM
CCCCCOC(=O)N1CCN(C(=O)C(CCC(=O)O)NC(=O)c2cc(N3CCC(COC)CC3)cc(-c3ccccc3)n2)CC1 (single isomer, unassigned)	510 nM
CCOC(=O)N1CCN(C(=O)[C@H](CCC(=O)O)NC(=O)c2cc(NCCN(C)C)cc(-c3ccccc3)n2)CC1	270 nM
CCCCOC(=O)N1CCN(C(=O)[C@H](CCC(=O)O)NC(=O)c2cc(OCCCC)cc(-c3ccccc3)n2)CC1	36 nM
CCCCOC(=O)N1CCN(C(=O)[C@H](CCC(=O)O)NC(=O)c2cccc(-c3ccccc3)n2)CC1	29 nM
CCOC(=O)N1CCN(C(=O)[C@H](CCC(=O)O)NC(=O)c2cc(OCCCO)cc(-c3ccccc3)n2)CC1	68 nM
NCC1CCN(c2cc(C(=O)N[C@@H](CCC(=O)O)C(=O)N3CCN(C(=O)OCCC4CCCC4)CC3)nc(-c3ccccc3)c2)CC1	69 nM
CCOC(=O)N1CCN(C(=O)[C@H](CCC(=O)O)NC(=O)c2cc(OCc3ccccc3)cc(-c3ccccc3)n2)CC1	28 nM
CCOC(=O)N1CCN(C(=O)[C@H](CCC(=O)O)NC(=O)c2cc(NC)cc(-c3ccccc3)n2)CC1	35 nM

Compound	Ki
CCCCCCOC(=O)N1CCN(C(=O)[C@H](CCC(=O)O)NC(=O)c2cc(N3CCC(O)CC3)cc(-c3ccccc3)n2)CC1	24 nM
CCOC(=O)N1CCN(C(=O)[C@H](CCC(=O)O)NC(=O)c2cc(NCCO)cc(-c3ccccc3)n2)CC1	114 nM
CCCCCCOC(=O)N1CCN(C(=O)[C@H](CCC(=O)O)NC(=O)c2cc(N(C)CCS(C)(=O)=O)cc(-c3ccccc3)n2)CC1	36 nM
CC(C)OC(=O)N1CCN(C(=O)[C@H](CCC(=O)O)NC(=O)c2cc(OCCO)cc(-c3ccccc3)n2)CC1	145 nM
CCOC(=O)N1CCN(C(=O)[C@H](CCC(=O)O)NC(=O)c2cc(NCc3ccccc3)cc(-c3ccccc3)n2)CC1	26 nM
CCOC(=O)N1CCN(C(=O)[C@H](CCC(=O)O)NC(=O)c2cc(NC3CCOCC3)cc(-c3ccccc3)n2)CC1	455 nM
COCCOc1cc(C(=O)N[C@@H](CCC(=O)O)C(=O)N2CCN(C(=O)OC(C)C)CC2)nc(-c2ccccc2)c1	189 nM
CCOC(=O)N1CCN(C(=O)[C@H](CCC(=O)O)NC(=O)c2cc(NCCOC)cc(-c3ccccc3)n2)CC1	99 nM
CCOC(=O)N1CCN(C(=O)[C@H](CCC(=O)O)NC(=O)c2cc(N(C)CCS(C)(=O)=O)cc(-c3ccccc3)n2)CC1	48 nM
CCCCCCCOC(=O)N1CCN(C(=O)[C@H](CCC(=O)O)NC(=O)c2cccc(-c3ccccc3)n2)CC1	7 nM
Cc1cccc(N2CCN(C(=O)[C@H](CCC(=O)O)NC(=O)c3cccc(-c4ccccc4)n3)CC2)c1	> 5700 nM
C=CCOC(=O)N1CCN(C(=O)[C@H](CCC(=O)O)NC(=O)c2cc(OC3CCNCC3)cc(-c3ccccc3)n2)CC1	93 nM
CCOC(=O)N1CCN(C(=O)[C@H](CCC(=O)O)NC(=O)c2cc(N(CC)CC)cc(-c3ccccc3)n2)CC1	23 nM
CCCCCOC(=O)N1CCN(C(=O)[C@H](CCC(=O)O)NC(=O)c2cc(N3CCC(O)CC3)cc(-c3ccccc3)n2)CC1	11 nM
CCOC(=O)N1CCN(C(=O)[C@H](CCC(=O)O)NC(=O)c2cc(N3CCN(CCN(C)C)CC3)cc(-c3ccccc3)n2)CC1	47 nM
CCCCCCOC(=O)N1CCN(C(=O)[C@H](CCC(=O)O)NC(=O)c2cc(N3CCC(CN)CC3)cc(-c3ccccc3)n2)CC1	18 nM
CCCCCOC(=O)N1CCN(C(=O)[C@H](CCC(=O)O)NC(=O)c2cc(OCCO)cc(-c3ccccc3)n2)CC1	32 nM
Cc1cccc(N2CCN(C(=O)[C@H](CCC(=O)O)NC(=O)c3cc(-c4ccccc4)cc(-c4ccccc4)n3)CC2)c1	5.7 nM
CCCCCOC(=O)N1CCN(C(=O)[C@H](CCC(=O)O)NC(=O)c2cc(OCCCC)cc(-c3ccccc3)n2)CC1	49 nM
CCCCOC(=O)N1CCN(C(=O)[C@H](CCC(=O)O)NC(=O)c2cc(OC3CCNCC3)cc(-c3ccccc3)n2)CC1	12 nM
CCOC(=O)N1CCN(C(=O)[C@H](CCC(=O)O)NC(=O)c2cc(OC(CC)C(=O)N(CC)CC)cc(-c3ccccc3)n2)CC1 (some centres undefined)	81 nM
O=C(O)CC[C@H](NC(=O)c1cc(N2CCC(O)CC2)cc(-c2ccccc2)n1)C(=O)N1CCN(C(=O)OCCC2CCCC2)CC1	40 nM
C=CCOC(=O)N1CCN(C(=O)[C@H](CCC(=O)O)NC(=O)c2cc(OCCCC)cc(-c3ccccc3)n2)CC1	99 nM
C=CCOC(=O)N1CCN(C(=O)[C@H](CCC(=O)O)NC(=O)c2cc(OCCO)cc(-c3ccccc3)n2)CC1	203 nM
CCOC(=O)N1CCN(C(=O)[C@H](CCC(=O)O)NC(=O)c2cc(OCCO)cc(-c3ccccc3)n2)CC1	157 nM
CCOC(=O)N1CCN(C(=O)[C@H](CCC(=O)O)NC(=O)c2cc(N3CCC(COC)CC3)cc(-c3ccccc3)n2)CC1	18 nM
CCOC(=O)N1CCN(C(=O)[C@H](CCC(=O)O)NC(=O)c2cc(N3CCC(CN)CC3)cc(-c3ccccc3)n2)CC1	14 nM
